Values quoted from earlier work, collected in US8293868B2 (priority 2004, dated 2012).

Test system: α-subunit of the P. americana high conductance calcium-activated potassium channel (pSlo)

**Q.** For charybdotoxin, which “block of pSlo channels previously reported” value is on record?
**A.** about 80%
